The source of these data is US4132737A, “Trifluoromethyl substituted 1-aminoindanes” (Eli Lilly and Company, priority 1978, dated 1979).

One data set has as its system catechol amine uptake. Conditions: literature statement, no figures; cited from earlier work.
Data set [1] concerns the target T1, norephineprine N-methyl transferase (Oryctolagus cuniculus, UniProt G1TT82).
T1 construct: employing NMT from rabbit adrenals; from tissue; host or cells: rabbit adrenals
T1 sequence (G1TT82 1-286): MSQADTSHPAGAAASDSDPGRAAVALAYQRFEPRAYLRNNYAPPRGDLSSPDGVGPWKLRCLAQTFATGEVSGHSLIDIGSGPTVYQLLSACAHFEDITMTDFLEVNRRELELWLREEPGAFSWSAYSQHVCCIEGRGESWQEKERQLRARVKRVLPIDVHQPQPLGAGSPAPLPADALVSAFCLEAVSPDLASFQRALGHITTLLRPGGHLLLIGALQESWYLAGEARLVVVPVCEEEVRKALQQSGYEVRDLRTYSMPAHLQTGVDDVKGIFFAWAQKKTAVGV
The data set can be described thus: in vitro inhibition of N-methyl transferase (NMT) from rabbit adrenals. The data set is classed as biochemical. Conditions: from concentration giving 50 percent inhibition, decreasing concentrations from 1 × 10^-4 M, read-out: pI50 (converted). The source says:
The compounds of this invention, either in the form of the free base, or as a pharmaceutically-acceptable acid addition salt thereof, are enzyme inhibitors. In particular, as previously stated, they are inhibitors of norephineprine N-methyl transferase [PNMT or phenethanolamine N-methyl transferase - - see Axelrod, J. Bio. Chem., 237, 1657 (1962)]. Compounds which inhibit the conversion of norephineprine to ephineprine are capable of lowering a high ephineprine-norephineprine ratio in mammals, a physiological condition frequently associated with essential hypertension. The compounds of this invention are thus capable of ameliorating the ephineprine-norephineprine imbalance in essential hypertension, an important aspect of the treatment of this disease state. The effectiveness of the compounds as N-methyl transferase inhibitors has been measured in vitro employing NMT from rabbit adrenals. By using a series of decreasing concentration of the inhibiting amine, usually starting with 1 × 10^-4 M continuing with 3 × 10^-5 M, 1 × 10^-5 M, etc., it was possible to determine a concentration at which the 50 percent inhibition of NMT was achieved. The negative reciprocal logarhithm (pI50) of this number was also calculated as a useful index. Table 1, which follows, summarizes the information thus obtained; i.e., the determination of enzyme inhibition activity for the compounds of this invention. […]

Where a name gives a salt, the structure may show the parent alone.

What is called pKa is the negative logarithm of the acid dissociation constant. Read a high pKa as a weaker acid or stronger base.

With `NC1Cc2ccccc2C1` [2-aminoindane], the “inhibitor of catechol amine uptake, compared with 1-aminoindane” value in the data set on catechol amine uptake was “better inhibitor of catechol amine uptake than 1-aminoindane”. Take `NC1CCc2c1cccc2C(F)(F)F` (centres unmarked) [4-trifluoromethyl-1-aminoindane hydrochloride]: in data set [1], the IC50 was 0.234 µM. Also, the pKa in “pKa determination” turned out to be 8.58. The like results for `NC1CCc2ccc(C(F)(F)F)cc21` (centres unmarked) [6-Trifluoromethyl-1-aminoindane hydrochloride] were, in that order, 64.6 µM and 8.52.
